Legend:
[1] = test system: HT-29; assay: Cytotoxicity against human HT-29 cells assessed as reduction in cell viability measured after 48 hrs by AlamarBlue assay; assay type: functional, cell-based; settings: HT-29, 48 h
[2] = Cytotoxicity against human THLE-3 cells assessed as reduction in cell viability measured after 48 hrs by AlamarBlue assay; assay type: cell-based; settings: for CC50 at 48 h: THLE-3 cells
[3] = biological target: T1, E. coli GroEL/ES (Escherichia coli, UniProt P0A6F5); assay: Inhibition of Escherichia coli GroEL/ES-mediated refolding of the denatured malate dehydrogenase; assay type: protein-complex assay
T1 sequence (P0A6F5 whole entry, looked up): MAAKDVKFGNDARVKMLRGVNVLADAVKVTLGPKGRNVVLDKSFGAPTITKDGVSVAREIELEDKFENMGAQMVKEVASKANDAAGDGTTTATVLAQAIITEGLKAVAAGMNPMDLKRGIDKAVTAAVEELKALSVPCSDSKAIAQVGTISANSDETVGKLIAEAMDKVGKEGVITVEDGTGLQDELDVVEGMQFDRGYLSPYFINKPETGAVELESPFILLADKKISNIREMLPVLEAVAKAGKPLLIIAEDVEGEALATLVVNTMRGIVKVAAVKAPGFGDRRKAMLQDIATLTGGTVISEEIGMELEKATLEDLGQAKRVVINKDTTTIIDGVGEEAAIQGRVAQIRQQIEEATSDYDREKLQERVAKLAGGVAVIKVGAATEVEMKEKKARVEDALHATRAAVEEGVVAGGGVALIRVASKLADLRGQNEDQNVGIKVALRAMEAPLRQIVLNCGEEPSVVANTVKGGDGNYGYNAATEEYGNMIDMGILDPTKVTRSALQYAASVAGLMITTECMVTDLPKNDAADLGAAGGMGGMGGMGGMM

[4] = (§1) Cytotoxicity against human HEK293 cells assessed as reduction in cell viability measured after 48 hrs by AlamarBlue assay; assay type: cell-based; settings: HEK293 cells
[5] = test system: DLD-1; assay: Cytotoxicity against human DLD-1 cells assessed as reduction in cell viability measured after 48 hrs by AlamarBlue assay; assay type: functional, cell-based; settings: DLD-1, 48 h
[6] = test system: HCT-116; assay: Cytotoxicity against human HCT-116 cells assessed as reduction in cell viability measured after 48 hrs by AlamarBlue assay; assay type: functional, cell-based; settings: HCT-116, 48 h
[7] = biological target: T1, E. coli GroEL/ES; assay: Inhibition of Escherichia coli GroEL/ES-mediated refolding of the denatured rhodanese; assay type: protein-complex assay
[8] = Cytotoxicity against human FHs74Int cells assessed as reduction in cell viability measured after 48 hrs by AlamarBlue assay; assay type: cell-based
[9] = biological target: T2, Thiosulfate sulfurtransferase (Homo sapiens, UniProt Q16762); assay: Inhibition of refolded Rhodanese (unknown origin)-mediated conversion of cyanide to thiocyanate treated with compound after refolding of the denatured enzyme
T2 sequence (Q16762 whole entry): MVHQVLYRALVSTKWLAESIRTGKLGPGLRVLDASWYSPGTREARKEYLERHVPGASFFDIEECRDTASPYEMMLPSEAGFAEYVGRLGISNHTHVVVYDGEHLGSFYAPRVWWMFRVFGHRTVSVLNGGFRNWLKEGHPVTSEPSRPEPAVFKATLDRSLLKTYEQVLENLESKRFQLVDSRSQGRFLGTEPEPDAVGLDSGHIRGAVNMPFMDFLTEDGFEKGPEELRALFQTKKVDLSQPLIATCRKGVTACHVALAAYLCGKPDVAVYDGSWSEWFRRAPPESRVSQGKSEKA

[10] = Inhibition of refolded MDH (unknown origin)-mediated oxidation of NADPH in presence of mesoxalic acid treated with compound after refolding of the denatured enzyme; set-up: species or system Homo sapiens
[11] = test system: FHC; assay: Cytotoxicity against human FHC cells assessed as reduction in cell viability measured after 48 hrs by AlamarBlue assay; assay type: cell-based
[12] = biological target: HSP60/HSP10 (Homo sapiens, UniProt P10809); assay: Inhibition of human mitochondrial HSP60/10-mediated refolding of the denatured malate dehydrogenase; assay type: mitochondria, Mitochondria
Chain of HSP60/HSP10 (P10809 whole entry): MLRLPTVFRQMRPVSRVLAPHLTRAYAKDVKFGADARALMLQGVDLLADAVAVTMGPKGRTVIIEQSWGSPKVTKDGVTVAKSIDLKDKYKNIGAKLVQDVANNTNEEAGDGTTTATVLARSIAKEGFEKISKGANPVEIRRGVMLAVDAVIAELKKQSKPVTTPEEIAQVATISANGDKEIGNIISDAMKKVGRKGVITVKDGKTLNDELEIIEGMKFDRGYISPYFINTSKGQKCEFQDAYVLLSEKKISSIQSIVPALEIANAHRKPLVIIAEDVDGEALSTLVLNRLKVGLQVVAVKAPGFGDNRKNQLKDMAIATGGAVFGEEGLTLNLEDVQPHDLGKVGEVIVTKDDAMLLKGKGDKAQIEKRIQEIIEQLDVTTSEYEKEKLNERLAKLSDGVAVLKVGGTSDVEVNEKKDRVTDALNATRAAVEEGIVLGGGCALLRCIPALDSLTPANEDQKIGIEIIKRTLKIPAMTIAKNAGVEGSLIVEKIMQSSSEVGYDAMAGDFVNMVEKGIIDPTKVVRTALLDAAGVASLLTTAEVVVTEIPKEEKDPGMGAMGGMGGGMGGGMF
Chain of HSP60/HSP10 (P61604 whole entry, further chain): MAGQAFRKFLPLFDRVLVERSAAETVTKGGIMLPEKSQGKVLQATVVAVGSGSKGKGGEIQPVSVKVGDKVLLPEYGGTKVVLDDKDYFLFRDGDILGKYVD

[13] = test system: HEK293; assay: as §1; assay type: cell-based; settings: hek293, 48 h

Structure (SMILES)	EC50 [1] [µM]	CC50 at 48 h [2] [µM]	IC50 [3] [µM]	CC50 at 48 h [4] [µM]	EC50 [5] [µM]	EC50 [6] [µM]	IC50 [7] [µM]	CC50 [8] [µM]	IC50 [9] [µM]	IC50 [10] [µM]	CC50 [11] [µM]	IC50 [12] [µM]	CC50 ([2]; thle-3, 48 h) [µM]	CC50 [13] [µM]
O=S(=O)(Nc1ccc(-c2nc3cc(NS(=O)(=O)c4cccc5ccccc45)ccc3o2)cc1)c1cccc2ccccc12	31	49	43	> 100	34	20	35	52	> 100	> 62.5				
O=S(=O)(Nc1ccc(-c2nc3cc(NS(=O)(=O)c4ccc(Br)cc4)ccc3o2)cc1)c1ccc(Br)cc1	17	18	16	22		11	34	> 100	> 100	> 62.5				
O=C(Nc1ccc(Sc2nc3ccccc3s2)cc1)c1cccc(Br)c1O	9.3	12	42	33	12	8.9	37	75		> 62.5	59	> 100		
O=S(=O)(Nc1ccc(-c2nc3cc(NS(=O)(=O)c4ccc(F)cc4)ccc3o2)cc1)c1ccc(F)cc1	17	22		31	18	12	19	63	> 100	> 62.5	27	63		
O=S(=O)(Nc1ccc(-c2nc3cc(NS(=O)(=O)c4cccc(C(F)(F)F)c4)ccc3o2)cc1)c1cccc(C(F)(F)F)c1		24	14	23		14		> 100		> 62.5	56	54		
COc1ccc(S(=O)(=O)Nc2ccc3oc(-c4ccc(NS(=O)(=O)c5cc(Br)ccc5OC)cc4)nc3c2)cc1	14		27		15	12	22	> 100	> 100	> 62.5	> 100	67	16	18
O=S(=O)(Nc1ccc(-c2nc3cc(NS(=O)(=O)c4ccc(C(F)(F)F)cc4)ccc3o2)cc1)c1ccc(C(F)(F)F)cc1	13	21	19	29	10	15	34	69	> 100	> 62.5	57	57		
COc1ccccc1S(=O)(=O)Nc1ccc(-c2nc3cc(NS(=O)(=O)c4ccccc4OC)ccc3o2)cc1	16	48	43	28	6.6	9.2	33	81	> 100	> 62.5	74	87		
Cc1ccc(S(=O)(=O)Nc2ccc(-c3nc4ccc(NS(=O)(=O)c5ccc(C)cc5)cc4[nH]3)cc2)cc1	21	22	24	38	25	14	46	96	> 100	> 62.5	> 100	79		
